Patent US6509373B1, “Strain of streptomyces, and relevant uses thereof” (Development Center for Biotechnology, priority 1998, dated 2003)
≈ marks a conversion by molar mass, not a printed value.

Legend:
Assay in all cases: Antifungal activity of isolated borrelidin in vitro
[1] = tested on: P. aphanidermatum; format: cell-based; details: Pythium aphanidermatum
Method: (§1) 1. The antifungal activity of the isolated borrelidin was tested against P. aphanidermatum, P. splendens, P. sylvaticum, P. capsici and Phytophthora ultimum in vitro.
(§2) 2. The isolated borrelidin was dissolved in methanol. Pasteurized, molten PDA (50 ml) was allowed to cool to 50° C. and mixed with 0.1 ml of borrelidin in methanol. Each fungal strain was tested at a specific concentration (max. 0.2 mg/l), or diluted concentration. A series of five concentrations was used to determine EC50 (the concentration at which 50% fungal growth is inhibited).
(§3) 3. PDA medium (50 ml) was mixed with 0.1 ml of borrelidin in methanol.
(§4) 4. The pathogenic fungi (2 mm mass) were inoculated. A microtitration plate added with methanol was used as control. The inhibition (%) was calculated when the control was fully covered with fungal mass, and EC50 was determined.

[2] = tested on: P. capsici; format: cell-based; details: Phytophthora capsici
Method: as §1, §2, §3, §4

[3] = tested on: P. splendens; format: cell-based, Pythium splendens; details: Globisporangium splendens
Method: as §1, §2, §3, §4

[4] = tested on: P. sylvaticum; format: cell-based, Pythium sylvaticum; details: Globisporangium sylvaticum
Method: as §1, §2, §3, §4

[5] = tested on: P. ultimum; format: cell-based, Pythium ultimum; details: Globisporangium ultimum
Method: as §1, §2, §3, §4

[6] = 0.025 mg/l in PDA, read-out: Growth Inhibition (%)
[7] = 0.05 mg/l in PDA, read-out: Growth Inhibition (%)
[8] = 0.2 mg/l in PDA, read-out: Growth Inhibition (%)
[9] = concentration at which 50% fungal growth is inhibited

CC1CC(C)CC(C)C(O)/C(C#N)=C\C=C\CC(C2CCCC2C(=O)O)OC(=O)CC(O)C(C)C1 (centres unmarked) [borrelidin, 2-[7-cyano-8,16-dihydro-9,11,13,15-tetramethyl-18-oxooxacyclooctadeca-4,6(E, Z)-diene-2-yl]cyclopentacarboxylic acid]
inhibition at 0.025 µg/mL [1, 6]: 14%
inhibition at 0.05 µg/mL [1, 7]: 45%
inhibition at 0.2 µg/mL [1, 8]: 99%
EC50 [1, 9]: 0.06 mg/L (≈ 0.123 µM)
inhibition at 0.025 µg/mL [2, 6]: 41%
inhibition at 0.05 µg/mL [2, 7]: 70%
inhibition at 0.2 µg/mL [2, 8]: 92%
EC50 [2, 9]: 0.027 mg/L (≈ 0.0551 µM)
inhibition at 0.025 µg/mL [3, 6]: 36%
inhibition at 0.05 µg/mL [3, 7]: 70%
inhibition at 0.2 µg/mL [3, 8]: 99%
EC50 [3, 9]: 0.03 mg/L (≈ 0.0613 µM)
inhibition at 0.025 µg/mL [4, 6]: 80%
inhibition at 0.05 µg/mL [4, 7]: 99%
inhibition at 0.2 µg/mL [4, 8]: 100%
EC50 [4, 9]: 0.01 mg/L (≈ 0.0204 µM)
inhibition at 0.025 µg/mL [5, 6]: 0%
inhibition at 0.05 µg/mL [5, 7]: 17%
inhibition at 0.2 µg/mL [5, 8]: 83%
EC50 [5, 9]: 0.1 mg/L (≈ 0.204 µM)
